The results in this text go back to US12178791B2, “Haloallylamine sulfone derivative inhibitors of lysyl oxidases and uses thereof” (Syntara Limited, priority 2018, dated 2024).

Structures can show the parent of a compound that is named as a salt.

Holding throughout (type): biochemical
One experiment concerns the target LOXL2 (Homo sapiens (Human), UniProt Q9Y4K0). Nature of the experiment: LOXL2 inhibition, Amplex Red oxidation assay. The conditions noted are these: 30 min preincubation at 37 °C, putrescine substrate. The source says: (§1) Lysyl oxidase (LOX) is an extracellular copper dependent enzyme which oxidizes peptidyl lysine and hydroxylysine residues in collagen and lysine residues in elastin to produce peptidyl alpha-aminoadipic-delta-semialdehydes. […] There are five LOX family members; these are LOX, LOXL1, LOXL2, LOXL3 and LOXL4. LOX and LOXL family members can be acquired as recombinant active proteins from commercial sources, or extracted from animal tissues like bovine aorta, tendons, pig skin; or prepared from cell cultures. The inhibitory effects of the compounds of the present invention were tested against the given LOX-LOXL preparation using a method based on the detection of hydrogen peroxide with an Amplex Red oxidation assay (Zhou et al. A stable nonfluorescent derivative of resorufin for the fluorometric determination of trace hydrogen peroxide: applications in detecting the activity of phagocyte NADPH oxidase and other oxidases. Anal. Biochem. 1997; 253, 162-168). The assay was developed using either 384 or 96 well format. Briefly, in a standard black, clear bottom 384 well plate assay 25 μL of a dilution of any of the isoenzymes and orthologues in 1.2 M urea, 50 mM sodium borate buffer (pH 8.2) were added into each well in the presence of 1 μM mofegiline and 0.5 mM pargyline (to inhibit SSAO and MAO-B and MAO-A, respectively; not necessary if the enzyme is from a recombinant or purified form). Test compounds were dissolved in DMSO and tested in a Concentration Response Curve (CRC) with 11 data points, typically in the micromolar or nanomolar range after incubation with the enzyme for 30 min at 37° C. Twenty five μL of a reaction mixture containing twice the KM concentration of putrescine (Sigma Aldrich, e.g. 20 mM for LOX, or 10 mM for LOXL2 and LOXL3), 120 μM Amplex Red (Sigma Aldrich) and 1.5 U/mL horseradish peroxidase (Sigma Aldrich) prepared in 1.2 M urea, 50 mM sodium borate buffer (pH 8.2) were then added to the corresponding wells. The above volumes were doubled in the case of 96 wells plate. The fluorescence (RFU) was read every 2.5 min for 30 min at […] 37° C., excitation 565 nm and emission 590 (Optima; BMG labtech). The slope of the kinetics for each well was calculated using MARS data analysis software (BMG labtech) and this value was used to deduce the IC50 value (Dotmatics).

The next experiment has as its target Bovine LOX (Bos taurus (Bovine), UniProt P33072). The experiment is described as follows: LOX inhibition, Amplex Red oxidation assay. To be noted: 30 min preincubation at 37 °C, putrescine substrate.
From the text: as §1, with “Test compounds were dissolved in DMSO and tested in a Concentration Response Curve (CRC) with 11 data points, typically in the micromolar or nanomolar range after incubation with the enzyme for 30 min at 37° C.” left out

Experiment [1] concerns the target Human recombinant SSAO/VAP-1 (Homo sapiens (Human), UniProt Q16853). Nature of the experiment: Inhibition of human recombinant SSAO/VAP-1. To be noted: 30 min preincubation at 37 °C, benzylamine 600 μM; read-out: SSAO/VAP-1 Activity IC50. On the procedure: Human recombinant SSAO/VAP-1 amine oxidase activity was determined using the coupled colorimetric method as described for monoamine oxidase, copper-containing amine oxidases and related enzymes (Holt A. and Palcic M., A peroxidase-coupled continuous absorbance plate-reader assay for flavin monoamine oxidases, copper-containing amine oxidases and related enzymes. Nat Protoc 2006; 1: 2498-2505). Briefly, a cloned cDNA template corresponding to residues 34-763 of human SSAO/VAP-1, and incorporating a mouse Ig kappa (κ) signal sequence, N-terminal flag epitope tag and tobacco etch virus (TEV) cleavage site, was assembled in a mammalian expression vector (pLO-CMV) by Geneart AG. This vector containing human SSAO/VAP-1 residues was transfected into CHO-Kl glycosylation mutant cell line, Lec 8. A clone stably expressing human SSAO/VAP-1 was isolated and cultured in large scale. Active human SSAO/VAP-1 was purified and recovered using immunoaffinity chromatography. This was used as the source for SSAO/VAP-1 activity. A high-throughput colorimetric assay was developed using either 96 or 384 well format. Briefly, in a standard 96 well plate assay 50 μL of purified human SSAO/VAP-1 (0.25 μg/mL) in 0.1 M sodium phosphate buffer (pH 7.4) was added into each well. Test compounds were dissolved in DMSO and tested in a Concentration Response Curve (CRC) with 4-11 data points, typically in the micromolar or nanomolar range after incubation with human SSAO/VAP-1 for 30 min at 37° C. After 30 min incubation, 50 μL of the reaction mixture containing 600 μM benzylamine (Sigma Aldrich), 120 μM Amplex Red (Sigma Aldrich) and 1.5 U/mL horseradish peroxidase (Sigma Aldrich) prepared in 0.1 M sodium phosphate buffer (pH 7.4) were added to the corresponding well. The fluorescence unit (RFU) was read every 2.5 min for 30 min at 37° C. excitation 565 nm and emission 590 (Optima; BMG labtech). The slope of the kinetics for each well was calculated using MARS data analysis software (BMG labtech) and this value was used to deduce the IC50 value (Dotmatics).

Chain of LOXL2 (Q9Y4K0 26-774): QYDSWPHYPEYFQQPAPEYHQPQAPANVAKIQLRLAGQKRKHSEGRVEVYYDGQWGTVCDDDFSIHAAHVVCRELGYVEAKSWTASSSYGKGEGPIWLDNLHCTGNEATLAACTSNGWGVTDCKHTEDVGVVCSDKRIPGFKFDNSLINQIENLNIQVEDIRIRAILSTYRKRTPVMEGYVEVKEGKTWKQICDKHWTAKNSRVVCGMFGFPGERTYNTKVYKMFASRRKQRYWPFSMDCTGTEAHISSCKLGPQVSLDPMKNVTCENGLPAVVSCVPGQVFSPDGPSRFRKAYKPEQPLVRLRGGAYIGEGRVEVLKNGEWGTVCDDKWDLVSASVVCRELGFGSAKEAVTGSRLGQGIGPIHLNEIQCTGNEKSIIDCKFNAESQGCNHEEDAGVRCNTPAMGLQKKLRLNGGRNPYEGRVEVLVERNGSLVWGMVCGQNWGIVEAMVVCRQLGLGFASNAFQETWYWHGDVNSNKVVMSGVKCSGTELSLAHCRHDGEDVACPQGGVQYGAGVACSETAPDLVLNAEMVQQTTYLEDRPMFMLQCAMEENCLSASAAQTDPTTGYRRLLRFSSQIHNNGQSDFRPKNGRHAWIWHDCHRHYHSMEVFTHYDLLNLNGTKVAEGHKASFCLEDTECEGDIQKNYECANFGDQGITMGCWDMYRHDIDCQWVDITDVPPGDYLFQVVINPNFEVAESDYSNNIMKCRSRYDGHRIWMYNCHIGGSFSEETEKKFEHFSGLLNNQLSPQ
Chain of Bovine LOX (P33072 170-418): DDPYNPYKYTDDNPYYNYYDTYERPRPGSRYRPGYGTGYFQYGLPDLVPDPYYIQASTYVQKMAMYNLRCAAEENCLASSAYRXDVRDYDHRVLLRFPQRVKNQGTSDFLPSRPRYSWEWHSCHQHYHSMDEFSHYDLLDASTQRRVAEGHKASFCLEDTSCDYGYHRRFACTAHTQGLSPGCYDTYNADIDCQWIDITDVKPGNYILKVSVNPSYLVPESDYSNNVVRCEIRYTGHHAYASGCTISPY
Chain of Human recombinant SSAO/VAP-1 (Q16853 34-763): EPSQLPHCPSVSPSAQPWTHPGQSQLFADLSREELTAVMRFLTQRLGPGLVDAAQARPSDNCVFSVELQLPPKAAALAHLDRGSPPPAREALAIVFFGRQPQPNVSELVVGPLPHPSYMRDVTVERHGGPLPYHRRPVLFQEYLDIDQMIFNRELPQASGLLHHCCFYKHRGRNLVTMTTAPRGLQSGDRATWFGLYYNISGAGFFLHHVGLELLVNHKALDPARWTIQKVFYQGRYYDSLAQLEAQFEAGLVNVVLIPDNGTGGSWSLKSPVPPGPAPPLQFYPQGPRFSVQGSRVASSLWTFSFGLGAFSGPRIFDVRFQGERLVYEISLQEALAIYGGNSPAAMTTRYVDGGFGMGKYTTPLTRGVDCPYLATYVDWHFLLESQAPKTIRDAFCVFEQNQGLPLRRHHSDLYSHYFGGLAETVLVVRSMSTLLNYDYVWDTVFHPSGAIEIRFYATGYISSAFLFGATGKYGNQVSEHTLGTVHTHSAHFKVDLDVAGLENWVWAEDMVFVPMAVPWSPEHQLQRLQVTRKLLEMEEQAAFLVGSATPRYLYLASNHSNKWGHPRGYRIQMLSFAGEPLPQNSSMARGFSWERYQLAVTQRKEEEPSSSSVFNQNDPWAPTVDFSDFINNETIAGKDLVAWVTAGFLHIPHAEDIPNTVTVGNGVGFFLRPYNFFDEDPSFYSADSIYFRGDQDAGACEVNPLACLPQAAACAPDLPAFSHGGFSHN

Consider `NC/C=C(\F)CS(=O)(=O)c1ccccc1-c1ccccc1` [Compound 20, (Z)-4-(biphenyl-2-ylsulfonyl)-3-fluorobut-2-en-1-amine hydrochloride], for which the IC50 on LOXL2 was below 1 µM; on Bovine LOX it was below 10 µM.
The corresponding values for `CC(C)c1ccccc1S(=O)(=O)C/C(F)=C/CN` [Compound 21, (Z)-3-fluoro-4-(2-isopropylphenylsulfonyl)but-2-en-1-amine hydrochloride] are below 1 µM and below 10 µM.
The corresponding values for `COc1ccccc1S(=O)(=O)C/C(F)=C/CN` [Compound 22, (Z)-3-fluoro-4-(2-methoxyphenylsulfonyl)but-2-en-1-amine hydrochloride] are below 1 µM and below 10 µM.
The corresponding values for `NC/C=C(\F)CS(=O)(=O)c1ccc2ccccc2c1` [Compound 24, (Z)-3-fluoro-4-(naphthalen-2-ylsulfonyl)but-2-en-1-amine hydrochloride] are below 1 µM and below 10 µM.
As to `NC/C=C(\F)CS(=O)(=O)c1ccc(Cl)cc1Cl` [Compound 25, (Z)-4-(2,4-dichlorophenylsulfonyl)-3-fluorobut-2-en-1-amine hydrochloride], the IC50 on LOXL2 is below 1 µM; against Bovine LOX, below 10 µM.
The corresponding values for `NC/C=C(\F)CS(=O)(=O)c1cccc(Cl)c1` [Compound 26, (Z)-4-(3-chlorophenylsulfonyl)-3-fluorobut-2-en-1-amine hydrochloride] are below 1 µM and below 10 µM.
`NC/C=C(\F)CS(=O)(=O)c1ccc(Cl)cc1` [Compound 27, (Z)-4-(4-chlorophenylsulfonyl)-3-fluorobut-2-en-1-amine hydrochloride]: the IC50 against LOXL2 was below 1 µM; against Bovine LOX, below 10 µM.
Regarding `CC(C)c1ccc(S(=O)(=O)C/C(F)=C/CN)nc1` [Compound 34, (Z)-3-fluoro-4-(5-isopropylpyridin-2-ylsulfonyl)but-2-en-1-amine dihydrochloride], the IC50 on LOXL2 is below 1 µM; against Bovine LOX, below 10 µM.
The corresponding values for `Cc1ccc(S(=O)(=O)C/C(F)=C/CN)nc1` [Compound 35, (Z)-3-fluoro-4-(5-methylpyridin-2-ylsulfonyl)but-2-en-1-amine dihydrochloride] are below 1 µM and below 10 µM.
The corresponding values for `Cc1cccc(S(=O)(=O)C/C(F)=C/CN)n1` [Compound 36, (Z)-3-fluoro-4-(6-methylpyridin-2-ylsulfonyl)but-2-en-1-amine dihydrochloride] are below 1 µM and below 10 µM.
Regarding `NC/C=C(\F)CS(=O)(=O)c1ccccc1F` [Compound 37, (Z)-3-fluoro-4-(2-fluorophenylsulfonyl)but-2-en-1-amine hydrochloride], the IC50 on LOXL2 is below 1 µM; against Bovine LOX, below 10 µM.
The corresponding values for `NC/C=C(\F)CS(=O)(=O)c1ccc(F)cc1` [Compound 39, (Z)-3-fluoro-4-(4-fluorophenylsulfonyl)but-2-en-1-amine hydrochloride] are below 1 µM and below 10 µM.
For the compound `Cc1ccccc1S(=O)(=O)C/C(F)=C/CN` [Compound 40, (Z)-3-fluoro-4-(o-tolylsulfonyl)but-2-en-1-amine hydrochloride], the IC50 at LOXL2 was below 1 µM; at Bovine LOX, below 10 µM.
The corresponding values for `Cc1cccc(S(=O)(=O)C/C(F)=C/CN)c1` [Compound 41, (Z)-3-fluoro-4-(m-tolylsulfonyl)but-2-en-1-amine hydrochloride] are below 1 µM and below 10 µM.
The corresponding values for `Cc1ccc(S(=O)(=O)C/C(F)=C/CN)cc1` [Compound 42, (Z)-3-fluoro-4-(p-tolylsulfonyl)but-2-en-1-amine hydrochloride] are below 1 µM and below 10 µM.
The corresponding values for `Cc1cccnc1S(=O)(=O)C/C(F)=C/CN` [Compound 43, (Z)-3-fluoro-4-(3-methylpyridin-2-ylsulfonyl)but-2-en-1-amine dihydrochloride] are below 1 µM and below 10 µM.
Consider `Cc1cc(S(=O)(=O)C/C(F)=C/CN)ccn1` [Compound 44, (Z)-3-fluoro-4-(2-methylpyridin-4-ylsulfonyl)but-2-en-1-amine dihydrochloride], for which the IC50 on LOXL2 is below 1 µM; on Bovine LOX, below 10 µM.
For the compound `Cc1ncccc1S(=O)(=O)C/C(F)=C/CN` [Compound 47, (Z)-3-fluoro-4-(2-methylpyridin-3-ylsulfonyl)but-2-en-1-amine dihydrochloride], the IC50 at LOXL2 is below 1 µM; on Bovine LOX, below 10 µM.
For the compound `Cc1ccncc1S(=O)(=O)C/C(F)=C/CN` [Compound 48, (Z)-3-fluoro-4-(4-methylpyridin-3-ylsulfonyl)but-2-en-1-amine dihydrochloride], the values for the IC50 at LOXL2 and against Bovine LOX were below 1 µM and below 10 µM, respectively.
For `CC(C)c1ccc(S(=O)(=O)C/C(F)=C/CN)cn1` [Compound 49, (Z)-3-fluoro-4-(6-isopropylpyridin-3-ylsulfonyl)but-2-en-1-amine dihydrochloride], the IC50 is below 1 µM on LOXL2 and below 10 µM on Bovine LOX.
The corresponding values for `Cc1[nH]c2c(S(=O)(=O)C/C(F)=C/CN)cccc2c1C` [Compound 52, (Z)-4-((2,3-dimethyl-1H-indol-7-yl)sulfonyl)-3-fluorobut-2-en-1-amine hydrochloride] are below 1 µM and below 10 µM.
For the compound `[2H]c1nc2c(S(=O)(=O)C/C(F)=C/CN)c([2H])c([2H])c([2H])c2c([2H])c1[2H]` [Compound 53, (Z)-3-fluoro-4-((quinolin-8-yl-d6)sulfonyl)but-2-en-1-amine dihydrochloride], the IC50 in experiment [1] was above 30 µM.
